Results taken from the supplement of paper PMC7600603.

Key:
DLD1 NRF2-WT [1] = assay: drug sensitivity score (DSS) viability (DSS score); higher = more sensitive; extreme values may be limits of the assay; conditions: 72 h; CellTiter-Glo viability
How it was run: (§1)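 Cells grown in DMEM with 10% FBS were isogenic DLD1 colorectal cancer lines, NRF2 wild-type or CRISPR gain-of-function. In 384-well plates they received library compounds at 5 concentrations over a 10,000-fold range for 72 h before CellTiter-Glo readout on a Pherastar FS reader, normalised to vehicle wells and 100-μM positive-control wells. Dose-response fits used a four-parameter logistic model, from which EC50 and drug sensitivity score, a normalised area under the curve, were obtained.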

DLD1 NRF2-GOF [2] = assay: as above; conditions: 72 h; CellTiter-Glo viability
How it was run: as §1

DLD1 NRF2-WT [3] = assay: TC50 cytotoxicity; higher = less toxic; conditions: 72 h; CellTox Green cytotoxicity
How it was run: (§2)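 After growth in DMEM with 10% FBS, NRF2 wild-type and CRISPR-edited isogenic DLD1 cells were seeded in 384-well plates and given library compounds at 5 concentrations across a 10,000-fold range. Fluorescence from CellTox Green was taken on a Pherastar FS reader after 72 h and normalised against vehicle wells and 100-μM positive-control wells. From logistic dose-response fits of cytotoxicity came the TC50 and the drug sensitivity score, a normalised area under the curve.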

DLD1 NRF2-GOF [4] = assay: TC50 cytotoxicity; higher = less toxic; conditions: 72 h; CellTox Green cytotoxicity
How it was run: as §2

DLD1 NRF2-WT [5] = assay: drug sensitivity score (DSS) cytotoxicity (DSS score); higher = more toxic; extreme values may be limits of the assay; conditions: 72 h; CellTox Green cytotoxicity
How it was run: as §2

DLD1 NRF2-GOF [6] = assay: as above; conditions: 72 h; CellTox Green cytotoxicity
How it was run: as §2

DLD1 NRF2-WT [7] = conditions: 72 h; CellTiter-Glo viability
How it was run: as §1

DLD1 NRF2-GOF [8] = conditions: 72 h; CellTiter-Glo viability
How it was run: as §1

EC50 viability (DLD1 NRF2-WT [7]) | EC50 viability (DLD1 NRF2-GOF [8]) | Compound | drug sensitivity score (DLD1 NRF2-WT [1]) | drug sensitivity score (DLD1 NRF2-GOF [2]) | TC50 cytotoxicity (DLD1 NRF2-WT [3]) | TC50 cytotoxicity (DLD1 NRF2-GOF [4]) | drug sensitivity score (DLD1 NRF2-WT [5]) | drug sensitivity score (DLD1 NRF2-GOF [6])
> 10 µM | > 10 µM | COC(=O)c1ccc2c(c1)NC(=O)/C2=C(\Nc1ccc(N(C)C(=O)CN2CCN(C)CC2)cc1)c1ccccc1 [Nintedanib] | 0.5 | 0 | > 10 µM | > 10 µM | 0.5 | 0
2.28 µM | 0.0429 µM | CC(C)NC(=O)COc1cccc(-c2nc(Nc3ccc4[nH]ncc4c3)c3ccccc3n2)c1 [KD025] | 1.8 | 5.4 | > 5 µM | > 5 µM | 0 | 0
0.0196 µM | 0.0266 µM | CN(C)C1CCN(C(=O)c2ccc(NC(=O)Nc3ccc(-c4nc(N5CCOCC5)nc(N5CCOCC5)n4)cc3)cc2)CC1 [Gedatolisib] | 13.5 | 12.6 | > 1 µM | > 1 µM | 0 | 0
> 2.5 µM | > 2.5 µM | CC(C)Oc1ccc(-c2nn([C@@H](C)c3oc4ccc(F)cc4c(=O)c3-c3cccc(F)c3)c3ncnc(N)c23)cc1F [TGR-1202] | 0 | 0 | > 2.5 µM | > 2.5 µM | 0 | 0
0.0822 µM | 0.0396 µM | C=CC(=O)Nc1cccc(Nc2nc(Nc3ccc(OCCOC)cc3)ncc2F)c1 [Spebrutinib] | 3.2 | 6.5 | > 1 µM | > 1 µM | 0 | 0
> 1 µM | > 1 µM | CCN1CCN(c2ccc(Nc3cc(N(C)C(=O)Nc4c(Cl)c(OC)cc(OC)c4Cl)ncn3)cc2)CC1 [NVP-BGJ398] | 0 | 0 | > 1 µM | > 1 µM | 0 | 0
0.103 µM | 0.114 µM | CN1CCN(C(=O)c2ccc3cc(CCNc4ncnc5ccc(C#N)cc45)ccc3c2)CC1 [Senexin B] | 3.5 | 3.6 | > 1 µM | > 1 µM | 0 | 0
0.511 µM | 0.855 µM | C1=N/C2=N/c3ccc(OCCN4CCCC4)c(c3)COC/C=C/COCc3cccc(c3)C(=C1)N2 [Pacritinib] | 15.1 | 12.6 | 1.98 µM | 1.8 µM | 8.1 | 8.6
10.5 µM | 14.2 µM | NC(=O)N1CCC(CC(=O)N2CCC([C@H]3c4ncc(Br)cc4CCc4cc(Cl)cc(Br)c43)CC2)CC1 [Lonafarnib] | 11 | 9.7 | 23.5 µM | 24.2 µM | 6.3 | 6.7
364 µM | 157 µM | NC(=O)NO [Hydroxyurea] | 1.7 | 5.8 | > 1000 µM | > 1000 µM | 0 | 0
> 10 µM | > 10 µM | Cn1ncc(Cl)c1-c1cc(C(=O)N[C@H](CN)Cc2ccc(F)c(F)c2)oc1Cl [Uprosertib] | 3.4 | 0 | > 10 µM | > 10 µM | 0 | 0
0.108 µM | 0.0533 µM | CCS(=O)(=O)c1cccc(-c2cc(C(=O)NC3CCN(C)CC3)c(C)c3[nH]c4ncc(C)cc4c23)c1 [TAK-901] | 7.8 | 11.2 | > 1 µM | 0.0837 µM | 2.2 | 5.6
0.0355 µM | 0.0297 µM | CN(Cc1cnc2nc(N)nc(N)c2n1)c1ccc(C(=O)N[C@@H](CCC(=O)O)C(=O)O)cc1 [Methotrexate] | 23.4 | 23.8 | > 5 µM | > 5 µM | 0 | 0
0.361 µM | 0.21 µM | CC(=O)c1cc2c(o1)C(=O)c1ccccc1C2=O [Napabucasin] | 21 | 23.9 | 0.617 µM | 0.465 µM | 16.1 | 19.6
0.12 µM | 0.179 µM | FC(F)c1nc2ccccc2n1-c1nc(N2CCOCC2)nc(N2CCOCC2)n1 [ZSTK474] | 11.4 | 6.2 | > 10 µM | > 10 µM | 0 | 0
4.29 µM | 1.72 µM | Sc1ncnc2nc[nH]c12 [Mercaptopurine] | 2.1 | 6.5 | > 10 µM | > 10 µM | 0 | 0
0.0264 µM | 0.035 µM | COc1ccc(-c2ccc3ncc4c(c3c2)n(-c2ccc(N3CCNCC3)c(C(F)(F)F)c2)c(=O)n4C)cn1 [NVP-BGT226] | 17.5 | 16.2 | 0.338 µM | 0.359 µM | 4.4 | 4.1
> 10 µM | > 10 µM | FC(F)(F)c1ccc(CNc2ccc(Cc3c[nH]c4ncc(Cl)cc34)cn2)cn1 [Pexidartinib] | 0 | 0.9 | > 10 µM | > 10 µM | 0 | 0

Second part, the molecule before the results:

Compound | EC50 viability (DLD1 NRF2-WT [7]) | EC50 viability (DLD1 NRF2-GOF [8]) | drug sensitivity score (DLD1 NRF2-WT [1]) | drug sensitivity score (DLD1 NRF2-GOF [2]) | TC50 cytotoxicity (DLD1 NRF2-WT [3]) | TC50 cytotoxicity (DLD1 NRF2-GOF [4]) | drug sensitivity score (DLD1 NRF2-WT [5]) | drug sensitivity score (DLD1 NRF2-GOF [6])
CCN(CCO)CCCOc1ccc2c(Nc3cc(CC(=O)Nc4cccc(F)c4)[nH]n3)ncnc2c1 [AZD1152-HQPA] | 0.0355 µM | 0.0658 µM | 6.6 | 6.7 | 0.0534 µM | 0.0568 µM | 5.5 | 7.7
CNC(=O)c1ccc(C)c(-n2c(C)cc(OCc3ccc(F)cc3F)c(Br)c2=O)c1 | > 1 µM | > 1 µM | 1.3 | 0 | > 1 µM | > 1 µM | 0 | 0
COCC1(CO)C(=O)C2CCN1CC2 (stereo not drawn) [APR-246] | > 10 µM | > 10 µM | 4.5 | 0 | > 10 µM | > 10 µM | 0 | 0
CCOc1ccccc1-n1c(C(C)N2CCN(C(=O)COc3ccc(Cl)cc3)CC2)nc2ccccc2c1=O (stereo not drawn) [Erastin] | > 10 µM | > 10 µM | 0 | 0 | > 10 µM | > 10 µM | 0 | 0
CCn1c(=O)c(-c2ccc(Cl)cc2Cl)cc2cnc(Nc3ccc(N4CCNCC4)c(F)c3)nc21 [FRAX486] | 0.25 µM | 0.626 µM | 9.8 | 7.1 | > 5 µM | > 5 µM | 0 | 0
CC(C)[C@H]1C(=O)N[C@@H](CCCNC(=N)N)C(=O)NCC(=O)N[C@@H](CC(=O)O)C(=O)N[C@H](Cc2ccccc2)C(=O)N1C [Cilengitide] | > 10 µM | 0.315 µM | 0 | 3.9 | > 10 µM | > 10 µM | 0 | 0
Cc1cccc(-c2nn3c(c2-c2ccnc4ccc(C(N)=O)cc24)CCC3)n1 [Galunisertib] | > 1 µM | 0.163 µM | 1.6 | 2.6 | > 1 µM | > 1 µM | 0 | 0
CCN(CC)CCN(Cc1ccc(-c2ccc(C(F)(F)F)cc2)cc1)C(=O)Cn1c(SCc2ccc(F)cc2)nc(=O)c2c1CCC2 [Darapladib] | > 1 µM | > 1 µM | 0 | 4.1 | > 1 µM | > 1 µM | 0 | 0
COc1c(OCCCN2CCOCC2)ccc2c1N=C(NC(=O)c1cnc(N)nc1)N1CCN=C21 [Copanlisib] | 0.0664 µM | 0.199 µM | 8.1 | 2.9 | > 1 µM | > 1 µM | 0.8 | 0
O=C(NOCCO)c1ccc2cncn2c1Nc1ccc(I)cc1F [GDC-0623] | 0.429 µM | > 2.5 µM | 3.3 | 0 | > 2.5 µM | > 2.5 µM | 0 | 0
Cn1cc(C[C@@H](N)C(=O)O)c2ccccc21 [1-methyl-D-tryptophan] | 0.874 µM | 0.552 µM | 2.3 | 3.2 | > 5 µM | > 5 µM | 0 | 0
COc1cc(N2CCC(N3CCN(C)CC3)CC2)ccc1Nc1ncc(Cl)c(Nc2ccccc2P(C)(C)=O)n1 [Brigatinib] | 0.399 µM | 0.0551 µM | 1.1 | 3.4 | > 1 µM | > 1 µM | 0 | 0
Cc1ncc(Cl)cc1NCc1ccc(C(=O)N[C@@H](CC2CCCC2)C(=O)NC2CC2)s1 | 0.401 µM | > 5 µM | 4 | 0 | > 5 µM | > 5 µM | 0 | 0
Cc1ccc(-n2nc(C(C)(C)C)cc2NC(=O)Nc2ccc(OCCN3CCOCC3)c3ccccc23)cc1 [Doramapimod] | > 10 µM | > 10 µM | 0 | 0 | > 10 µM | > 10 µM | 0 | 0
CC1(COc2ccc3c(c2)ncn3-c2ccc3cccc(N4CCC(N)CC4)c3n2)COC1 [Crenolanib] | 1.03 µM | 1.46 µM | 10.9 | 9.3 | 2.65 µM | 2.89 µM | 4.3 | 6.1
O=c1[nH]cc(F)c(=O)[nH]1 [Fluorouracil] | 0.001 µM | 0.176 µM | 10.3 | 7.1 | > 10 µM | > 10 µM | 0 | 0
CCNc1nc(Nc2cc(F)c(C(=O)N3CCOCC3)cc2OC)ncc1C(F)(F)F [GNE-7915] | 0.148 µM | 0.253 µM | 3.3 | 2.9 | > 1 µM | > 1 µM | 0 | 0
CCn1c(-c2nonc2N)nc2c(C#CC(C)(C)O)ncc(OC[C@H]3CCCNC3)c21 | 1.5 µM | 2.87 µM | 4.3 | 2.4 | > 10 µM | > 10 µM | 0 | 0
